Values of other authors as cited in US20110160244A1, “PHENYL[…] MU-OPIOID RECEPTOR” (AUSPEX PHARMACEUTICALS, INC., priority 2008, published 2011).

Assays:
[1] = after oral administration

CCOC(=O)C1(c2ccccc2)CCN(C)CC1 [Meperidine, Ethyl 1-methyl-4-phenylpiperidine-4-carboxylate]
time to peak analgesic effect (following oral administration): ≤ 2 h
time until analgesic effects are detectable (following oral administration): ≤ 15 min
time for which the drug is effective (statement on dosing interval): 2 h
fraction escaping first-pass metabolism [1]: about 50%
